From publication PMC9995618 (Journal of Genetic Engineering & Biotechnology, 2023)

Test system: T1, tick larvae glutathione S transferase (TLGST)
T1 construct: native enzyme purified from larvae (42 kDa; 28 and 14 kDa subunits)
Experiment: CDNB-GSH conjugation assay, Lineweaver-Burk and Ki plot
Type: biochemical, Hyalomma dromedarii

Structure (SMILES): O=C(O)c1cc[c]([Hg][Cl])cc1 [p-chloromercuribenzoic acid]
- Ki: 300 µM
